Laboratory results taken from patent US6482921B1, “Uridyl peptide antibiotic (UPA) derivatives, their synthesis and use” (Essential Therapeutics, Inc., priority 1999, dated 2002).
≈ marks a conversion by molar mass, not a printed value.

Tests used:
Assay type in all cases: cell-based
[1] = tested on: Pseudomonas aeruginosa PAM 1135; assay: MIC broth microdilution, P. aeruginosa PAM 1135 (high level UPA resistance); conditions: P. aeruginosa PAM 1135 UPA1^r
[2] = tested on: Staphylococcus aureus ATCC 29213; assay: MIC broth microdilution, S. aureus ATCC 29213 (wild type); conditions: S. aureus ATCC 29213
[3] = tested on: Escherichia Coli MC 4100 AcrAB UPA3r; assay: MIC broth microdilution, E. coli MC 4100 AcrAB UPA3r (ΔAcrAB, UPA resistant); conditions: E. coli AcrAB UPA3^r
[4] = tested on: Staphylococcus aureus 8325-4; assay: MIC broth microdilution, S. aureus 8325-4 (wild type); conditions: S. aureus 8325-4
[5] = tested on: Pseudomonas aeruginosa PAM 1020; assay: MIC broth microdilution, P. aeruginosa PAM 1020 (wild type); conditions: P. aeruginosa PAM 1020
[6] = tested on: Pseudomonas aeruginosa PAM 1154; assay: MIC broth microdilution, P. aeruginosa PAM 1154 (OprM::Hg); conditions: P. aeruginosa PAM 1154 OprM::Hg
[7] = tested on: Pseudomonas aeruginosa PAM 1323; assay: MIC broth microdilution, P. aeruginosa PAM 1323 (medium level UPA resistance)
Description: Compounds were tested against several panels of bacteria. In a first panel, Table 3, several strains of Pseudomonas aeruginosa, Escherichia coli and Staphylococcus aureus were employed as the target bacteria.
For the bacteria in Table 3, the assay was performed in Mueller-Hinton Broth (MHB) with a final bacterial inoculum of 5×10^5 CFU/ml and a final volume of 100 μl. Control drugs, including imipenem and pacidimycin 4, and the test compounds were prepared at a concentration which was twice the desired final concentration (256 μg/ml). Dilution of the controls and the test compounds was accomplished directly on the test plates by serial 2-fold dilution using a multi-channel pipette. Both a positive and a negative growth control was included in each plate.
The bacterial inocula were prepared as follows. Bacterial strains were grown overnight at 35° C. in MHB. […] The culture was then diluted 1:10 and allowed to grow for an additional one hour at 35° C. in a shaking incubator. The inocula were then prepared by diluting the early log phase (one hour) cultures 1:2000 with fresh MHB. A volume of 50 μl of the inocula was added to each well, resulting in an inoculum of approximately 5×10^5 CFU/ml. The exact inocula were determined by putting 10 μl of 10-fold serial dilution of the bacterial suspensions onto TSA. After overnight incubation at 35° C., colony-forming units were counted manually.
The microtiter plates were incubated for 20 hours at 35° C. and were then read using a microtiterplate reader (Molecular Devices) at 650 nm as well as being visually observed using a microtiterplate reading mirror.

[8] = tested on: Escherichia Coli MC 4100 AcrAB; assay: MIC broth microdilution, E. coli MC 4100 AcrAB (ΔAcrAB); conditions: E. coli AcrAB
[9] = tested on: Pasteurella multocida pm002; assay: MIC broth microdilution, P. multocida pm002 (wild type)
Escherichia Coli MC 4100 = assay: MIC broth microdilution, E. coli MC 4100 (wild type); conditions: E. coli MC 4100

| SMILES | MIC (μg/ml) Broth microdilution [1] | MIC (μg/ml) Broth microdilution [2] | MIC (μg/ml) Broth microdilution [3] | MIC (μg/ml) Broth microdilution [4] | MIC (μg/ml) Broth microdilution [5] | MIC (μg/ml) Broth microdilution [6] | MIC (μg/ml) Broth microdilution [7] | MIC (μg/ml) Broth microdilution [8] | MIC (μg/ml) Broth microdilution [9] | MIC (μg/ml) Broth microdilution (Escherichia Coli MC 4100) |
| --- | --- | --- | --- | --- | --- | --- | --- | --- | --- | --- |
| CC(N)C(=O)N(C)C(C)C(NC(=O)C(Cc1ccc(F)cc1)NC(=O)NC(C(=O)O)c1ccccc1)C(=O)NCC1CC(O)C(n2ccc(=O)[nH]c2=O)O1 (mixture of isomers) [Compound 141, 1-[5′-[(2S,3S)-N^3-L-Alanyl-N^2-[N-[[α(R,S)-1-carboxy-phenmethyl]carbamoyl]-L-4-fluorophenylalanyl]-N^3-methyl-2,3-diaminobutyramido]-3′,5′-dideoxy-α-L-arabinofuranosyl]uracil] | >512 µg/mL | >512 µg/mL | >512 µg/mL | >512 µg/mL | >512 µg/mL | 512 µg/mL | >512 µg/mL | 16 µg/mL | >512 µg/mL | >512 µg/mL |
| CC(N)C(=O)N(C)C(C)C(NC(=O)C(Cc1ccc(F)cc1)NC(=O)NC(C(=O)O)c1ccccc1)C(=O)NCC1CC(O)C(n2ccc(=O)[nH]c2=O)O1 (mixture of isomers) [Compound 142, 1-[5′-[(2S,3S)-N^3-L-Alanyl-N^2-[N-[[α(S,R)-1-carboxy-phenmethyl]carbamoyl]-L-4-fluorophenylalanyl]-N^3-methyl-2,3-diaminobutyramidol-3′,5′-dideoxy-α-L-arabinofuranosyl]uracil] | >512 µg/mL | >512 µg/mL | 32 µg/mL | >512 µg/mL | 512 µg/mL | 64 µg/mL | >512 µg/mL | 4 µg/mL | >512 µg/mL | 512 µg/mL |
| CC(C(NC(=O)C(Cc1ccccc1)NC(=O)NC(Cc1ccc(O)cc1)C(=O)O)C(=O)NCC1CC(O)C(n2ccc(=O)[nH]c2=O)O1)N(C)C(=O)C(N)Cc1ccccc1 [Compound 100, 1-[5′-[(2S,3S)-N^2-[N-[[(1S)-1-Carboxy-4-hydroxyphenethyl]carbamoyl]-L-phenylalanyl]-N^3-L-phenylalanyl-N^3-methyl-2,3-diaminobutyramido]-3′,5′-dideoxy-α-L-arabinofuranosyl]uracil] | >512 µg/mL | >512 µg/mL | 2 µg/mL (≈ 2.37 µM) | 512 µg/mL (≈ 607 µM) | 32 µg/mL (≈ 38 µM) | 8 µg/mL (≈ 9.49 µM) | >512 µg/mL | <1 µg/mL | 256 µg/mL (≈ 304 µM) | 8 µg/mL (≈ 9.49 µM) |
| CC(C)CC(N)C(=O)N(C)C(C)C(NC(=O)C(Cc1ccccc1)NC(=O)NC(Cc1ccc(O)cc1)C(=O)O)C(=O)NCC1CC(O)C(n2ccc(=O)[nH]c2=O)O1 [Compound 101, 1-[5′-[(2S,3S)-N^2-[N-[[(1S)-1-Carboxy-4-hydroxyphenethyl]carbamoyl]-L-phenylalanyl]-N^3-L-leucyl-N^3-methyl-2,3-diaminobutyramido]-3′,5′-dideoxy-α-L-arabinofuranosyl]uracil] | >512 µg/mL | >512 µg/mL | 128 µg/mL (≈ 158 µM) | >512 µg/mL | 128 µg/mL (≈ 158 µM) | 8 µg/mL (≈ 9.89 µM) | >512 µg/mL | 2 µg/mL (≈ 2.47 µM) | >512 µg/mL | >512 µg/mL |
| CC(C(NC(=O)C(Cc1ccccc1)NC(=O)NC(Cc1ccc(O)cc1)C(=O)O)C(=O)NCC1CC(O)C(n2ccc(=O)[nH]c2=O)O1)N(C)C(=O)CN [Compound 102, 1-[5′-[(2S,3S)-N^2-[N-[[(1S)-1-Carboxy-4-hydroxyphenethyl]carbamoyl]-L-phenylalanyl]-N^3-glycyl-N^3-methyl-2,3-diaminobutyramido]-3′,5′-dideoxy-α-L-arabinofuranosyl]uracil] | >512 µg/mL | >512 µg/mL | 16 µg/mL (≈ 21.3 µM) | 512 µg/mL (≈ 680 µM) | 32 µg/mL (≈ 42.5 µM) | 8 µg/mL (≈ 10.6 µM) | 512 µg/mL (≈ 680 µM) | <1 µg/mL | 256 µg/mL (≈ 340 µM) | 512 µg/mL (≈ 680 µM) |
| CSCCC(NC(=O)NC(Cc1ccc(O)cc1)C(=O)O)C(=O)NC(C(=O)NCC1CC(O)C(n2ccc(=O)[nH]c2=O)O1)C(C)N(C)C(=O)CN [Compound 104, 1-[5′[(2S,3S)-N^2-(N-[[(1S)-1-Carboxy-4-hydroxyphenethyl]carbamoyl]-L-methionyl]-N^3-glycyl-N^3-methyl-2,3-diaminobutyramidol-3′,5′-dideoxy-α-L-arabinofuranosyl]uracil] | >512 µg/mL | >512 µg/mL | 128 µg/mL (≈ 174 µM) | >512 µg/mL | 32 µg/mL (≈ 43.4 µM) | 4 µg/mL (≈ 5.43 µM) | <512 µg/mL | 16 µg/mL (≈ 21.7 µM) | 256 µg/mL (≈ 347 µM) | <512 µg/mL |
| CC(C(NC(=O)C(Cc1ccc(F)cc1)NC(=O)NC(Cc1ccc(O)cc1)C(=O)O)C(=O)NCC1CC(O)C(n2ccc(=O)[nH]c2=O)O1)N(C)C(=O)C(N)Cc1ccc(F)cc1 [Compound 105, 1-[5′[(2S,3S)-N^2-[N-[[(1S)-1-Carboxy-4-hydroxyphenethyl]carbamoyl]-L-4-fluorophenylalanyl]-N^3-L-4-fluorophenylalanyl-N^3-methyl-2,3-diaminobutyramido]-3′,5′-dideoxy-α-L-arabinofuranosyl]uracil] | 256 µg/mL (≈ 291 µM) | >512 µg/mL | 512 µg/mL (≈ 583 µM) | >512 µg/mL | 256 µg/mL (≈ 291 µM) | 64 µg/mL (≈ 72.8 µM) | 256 µg/mL (≈ 291 µM) | 16 µg/mL (≈ 18.2 µM) | 512 µg/mL (≈ 583 µM) | 512 µg/mL (≈ 583 µM) |
| CC(C)CC(N)C(=O)N(C)C(C)C(NC(=O)C(Cc1ccc(F)cc1)NC(=O)NC(Cc1ccc(O)cc1)C(=O)O)C(=O)NCC1CC(O)C(n2ccc(=O)[nH]c2=O)O1 [Compound 107, 1-[5′[(2S,3S)-N^2-[N-[[(1S)-1-Carboxy-4-hydroxyphenethyl]carbamoyl]-L-4-fluorophenylalanyl]-N^3-L-leucyl-N^3-methyl-2,3-diaminobutyramido]-3′,5′-dideoxy-α-L-arabinofuranosyl]uracil] | >512 µg/mL | >512 µg/mL | 8 µg/mL (≈ 9.67 µM) | >512 µg/mL | 256 µg/mL (≈ 310 µM) | 64 µg/mL (≈ 77.4 µM) | >512 µg/mL | <1 µg/mL | >512 µg/mL | 16 µg/mL (≈ 19.3 µM) |
